Tests used:
crabgrass = assay: Test A crabgrass; format: in vivo, Digitaria spp.; conditions: 0 to 10 scale where 0 is no effect and 10 is complete control
How it was run: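 Ratings came from visual comparison with untreated plants about eleven days after treatment, scored 0 for no effect through 10 for complete control. Both soil-drench preemergence and runoff-spray postemergence applications were made at the same time.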

cocklebur = assay: Test C postemergence cocklebur; format: in vivo, Xanthium strumarium; conditions: 0 to 100 scale, 0 no effect, 100 complete control
How it was run: (§1)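 Greenhouse postemergence test: compound applied in solvent/surfactant formulation to established plants; visual scoring 0–100 against untreated controls after roughly two to three weeks (14–21 days).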

corn = assay: Test C postemergence corn; format: in vivo, Zea mays; conditions: 0 to 100 scale, 0 no effect, 100 complete control
How it was run: as §1

redroot pigweed [1] = assay: Test C postemergence redroot pigweed; format: in vivo, Amaranthus retroflexus; conditions: 0 to 100 scale, 0 no effect, 100 complete control
How it was run: as §1

littleseed canarygrass [2] = assay: Test E littleseed canarygrass; format: in vivo, Phalaris minor; conditions: Postemergence
Description: (§2) Compounds evaluated in this test were formulated in a non-phytotoxic solvent mixture which included a surfactant and applied to plants that were in the 1- to 4-leaf stage (postemergence application). A mixture of sandy loam soil and greenhouse potting mix in a 60:40 ratio was used for the postemergence test.
(§3) Plantings of these crops and weed species were adjusted to produce plants of appropriate size for the postemergence test. All plant species were grown using normal greenhouse practices. Crop and weed species include annual bluegrass (Poa annua), blackgrass (Alopecurus myosuroides), black nightshade (Solanum nigra), chickweed (Stellaria media), common poppy (Papaver rhoeas), deadnettle (Lamium amplexicaule), downy brome (Bromus tectorum), field violet (Viola arvensis), galium (Galium aparine), green foxtail (Setaria viridis), Italian ryegrass (Lolium multiflorum), jointed goatgrass (Aegilops cylindrica), kochia (Kochia scoparia), lambsquarters (Chenopodium album), littleseed canarygrass (Phalaris minor), rape (Brassica napus), redroot pigweed (Amaranthus retroflexus), Russian thistle (Salsola kali), scentless chamomile (Matricaria inodora), spring barley (Hordeum vulgare), sugar beet (Beta vulgaris), sunflower (Helianthus annuus), ivyleaf speedwell (Veronica hederaefolia), spring wheat (Triticum aestivum), winter wheat (Triticum aestivum), wild buckwheat (Polygonum convolvulus), wild mustard (Sinapis arvensis), wild oat (Avena fatua), windgrass (Apera spica-venti) and winter barley (Hordeum vulgare).
(§4) Treated plants and untreated controls were maintained in a greenhouse for approximately 21 to 28 days, after which all treated plants were compared to untreated controls and visually evaluated. […] A dash response (-) means no test result.

rape = assay: Test E rape; format: in vivo, Brassica napus; conditions: Postemergence
How it was run: (§5)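 Each compound, carried in a non-phytotoxic solvent blend including surfactant, was applied (postemergence: over the top of young plants at 1- to 4-leaf stage). Plants stayed in the greenhouse about 21 to 28 days before visual comparison with untreated controls.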

redroot pigweed [3] = assay: Test E redroot pigweed; format: in vivo, Amaranthus retroflexus; conditions: Postemergence
Description: as §2, §3, §4

scentless chamomile = assay: Test E scentless chamomile; format: in vivo, Matricaria inodora; conditions: Postemergence
Description: as §2, §3, §4

spring barley [4] = assay: Test E spring barley; format: in vivo, Hordeum vulgare; conditions: Postemergence
Description: as §2, §3, §4

winter barley = assay: Test E winter barley; format: in vivo, Hordeum vulgare; conditions: Postemergence
How it was run: as §5

downy brome = assay: Test E downy brome; format: in vivo, Bromus tectorum; conditions: Preemergence
littleseed canarygrass [5] = assay: Test E littleseed canarygrass; format: in vivo, Phalaris minor; conditions: Preemergence
Russian thistle = assay: Test E Russian thistle; format: in vivo, Salsola kali; conditions: Preemergence
spring barley [6] = assay: Test E spring barley; format: in vivo, Hordeum vulgare; conditions: Preemergence
sugar beet = assay: Test E sugar beet; format: in vivo, Beta vulgaris; conditions: Preemergence
sunflower = assay: Test E sunflower; format: in vivo, Helianthus annuus; conditions: Preemergence
wild mustard = assay: Test E wild mustard; format: in vivo, Sinapis arvensis; conditions: Preemergence
[7] = Rate 250 g/ha, 0 to 100 scale (0 no effect, 100 complete control)
[8] = Rate 500 g/ha, 0 to 100 scale, 0 no effect, 100 complete control
[9] = Rate 125 g/ha, 0 to 100 scale (0 no effect, 100 complete control)
[10] = Rate 500 g/ha, 0 to 100 scale where 0 is no effect and 100 is complete control
[11] = Rate 62 g/ha, 0 to 100 scale, 0 no effect, 100 complete control

CCOC(=O)Cn1c(=O)on(C(=O)N(c2ccc(F)cc2)C(C)C)c1=O [Compound 128]
Plant response rating, Crabgrass (crabgrass; Postemergence, Rate 1000 g/ha): 0 | Plant response rating, Crabgrass (crabgrass; Pre-emergence, Rate 2000 g/ha): 0

CCn1c(=O)on(C(=O)N(c2ccc(F)cc2F)C(C)C)c1=O [Compound 116]
Plant response rating, Cocklebur (cocklebur; Rate 140 g/ha): 0 | Plant response rating, Cocklebur (cocklebur; Rate 560 g/ha): 0 | Plant response rating, Cocklebur (cocklebur; Rate 1120 g/ha): 50 | Plant response rating, Corn (corn; Rate 140 g/ha): 0 | Plant response rating, Corn (corn; Rate 280 g/ha): 0 | Plant response rating, Corn (corn; Rate 560 g/ha): 15 | Plant response rating, Corn (corn; Rate 1120 g/ha): 20 | Plant response rating, Redroot pigweed (redroot pigweed [1]; Rate 140 g/ha): 0 | Plant response rating, Redroot pigweed (redroot pigweed [1]; Rate 280 g/ha): 0 | Plant response rating, Redroot pigweed (redroot pigweed [1]; Rate 560 g/ha): 0 | Plant response rating, Redroot pigweed (redroot pigweed [1]; Rate 1120 g/ha): 20 | Plant response rating, LS canarygrass (littleseed canarygrass [2]; Rate 62 g/ha, 0 to 100 scale): 10 | Plant response rating, LS canarygrass (littleseed canarygrass [2]; Rate 125 g/ha, 0 to 100 scale): 30 | Plant response rating, LS canarygrass (littleseed canarygrass [2]; [7]): 40 | Plant response rating, LS canarygrass (littleseed canarygrass [2]; [8]): 50 | Plant response rating, Rape (rape; Rate 62 g/ha, 0 to 100 scale): 10 | Plant response rating, Rape (rape; Rate 125 g/ha, 0 to 100 scale): 0 | Plant response rating, Rape (rape; [7]): 0 | Plant response rating, Rape (rape; [8]): 30 | Plant response rating, Redroot pigweed (redroot pigweed [3]; Rate 62 g/ha, 0 to 100 scale): 0 | Plant response rating, Redroot pigweed (redroot pigweed [3]; Rate 125 g/ha, 0 to 100 scale): 0 | Plant response rating, Redroot pigweed (redroot pigweed [3]; [7]): 0 | Plant response rating, Redroot pigweed (redroot pigweed [3]; [8]): 0 | Plant response rating, Scentless chamo (scentless chamomile; Rate 62 g/ha, 0 to 100 scale): 50 | Plant response rating, Scentless chamo (scentless chamomile; Rate 125 g/ha, 0 to 100 scale): 0 | Plant response rating, Scentless chamo (scentless chamomile; [7]): 0 | Plant response rating, Scentless chamo (scentless chamomile; [8]): 40 | Plant response rating, Spring Barley (spring barley [4]; Rate 62 g/ha, 0 to 100 scale): 5 | Plant response rating, Spring Barley (spring barley [4]; Rate 125 g/ha, 0 to 100 scale): 0 | Plant response rating, Spring Barley (spring barley [4]; [7]): 10 | Plant response rating, Spring Barley (spring barley [4]; [8]): 0 | Plant response rating, Barley (winter) (winter barley; Rate 62 g/ha, 0 to 100 scale): 0 | Plant response rating, Barley (winter) (winter barley; Rate 125 g/ha, 0 to 100 scale): 10 | Plant response rating, Barley (winter) (winter barley; [7]): 10 | Plant response rating, Barley (winter) (winter barley; [8]): 10 | Plant response rating, Downy brome (downy brome; [9]): 60 | Plant response rating, Downy brome (downy brome; Rate 250 g/ha, 0 to 100 scale): 50 | Plant response rating, Downy brome (downy brome; [10]): 70 | Plant response rating, LS canarygrass (littleseed canarygrass [5]; [9]): 70 | Plant response rating, LS canarygrass (littleseed canarygrass [5]; Rate 250 g/ha, 0 to 100 scale): 80 | Plant response rating, LS canarygrass (littleseed canarygrass [5]; [10]): 100 | Plant response rating, Russian thistle (Russian thistle; [9]): 0 | Plant response rating, Russian thistle (Russian thistle; Rate 250 g/ha, 0 to 100 scale): 0 | Plant response rating, Russian thistle (Russian thistle; [10]): 50 | Plant response rating, Spring Barley (spring barley [6]; [9]): 40 | Plant response rating, Spring Barley (spring barley [6]; Rate 250 g/ha, 0 to 100 scale): 75 | Plant response rating, Spring Barley (spring barley [6]; [10]): 100 | Plant response rating, Sugar beet (sugar beet; [9]): 50 | Plant response rating, Sugar beet (sugar beet; Rate 250 g/ha, 0 to 100 scale): 85 | Plant response rating, Sugar beet (sugar beet; [10]): 95 | Plant response rating, Sunflower (sunflower; [9]): 15 | Plant response rating, Sunflower (sunflower; Rate 250 g/ha, 0 to 100 scale): 40 | Plant response rating, Sunflower (sunflower; [10]): 70 | Plant response rating, Wild mustard (wild mustard; [9]): 75 | Plant response rating, Wild mustard (wild mustard; Rate 250 g/ha, 0 to 100 scale): 85 | Plant response rating, Wild mustard (wild mustard; [10]): 65

CCn1c(=O)on(C(=O)N(c2ccc(F)cc2)C(C)C)c1=O [Compound 107]
Plant response rating, Cocklebur (cocklebur; Rate 140 g/ha): 0 | Plant response rating, Cocklebur (cocklebur; Rate 280 g/ha): 50 | Plant response rating, Corn (corn; Rate 140 g/ha): 0 | Plant response rating, Corn (corn; Rate 280 g/ha): 5 | Plant response rating, Corn (corn; Rate 560 g/ha): 55 | Plant response rating, Corn (corn; Rate 1120 g/ha): 60 | Plant response rating, Redroot pigweed (redroot pigweed [1]; Rate 280 g/ha): 75 | Plant response rating, Redroot pigweed (redroot pigweed [1]; Rate 560 g/ha): 80 | Plant response rating, Redroot pigweed (redroot pigweed [1]; Rate 1120 g/ha): 80 | Plant response rating, LS canarygrass (littleseed canarygrass [2]; Rate 62 g/ha, 0 to 100 scale): 15 | Plant response rating, LS canarygrass (littleseed canarygrass [2]; Rate 125 g/ha, 0 to 100 scale): 20 | Plant response rating, LS canarygrass (littleseed canarygrass [2]; [7]): 60 | Plant response rating, Rape (rape; Rate 62 g/ha, 0 to 100 scale): 20 | Plant response rating, Rape (rape; Rate 125 g/ha, 0 to 100 scale): 30 | Plant response rating, Rape (rape; [7]): 50 | Plant response rating, Redroot pigweed (redroot pigweed [3]; Rate 62 g/ha, 0 to 100 scale): 20 | Plant response rating, Redroot pigweed (redroot pigweed [3]; Rate 125 g/ha, 0 to 100 scale): 10 | Plant response rating, Redroot pigweed (redroot pigweed [3]; [7]): 20 | Plant response rating, Scentless chamo (scentless chamomile; Rate 62 g/ha, 0 to 100 scale): 10 | Plant response rating, Scentless chamo (scentless chamomile; Rate 125 g/ha, 0 to 100 scale): 0 | Plant response rating, Scentless chamo (scentless chamomile; [7]): 10 | Plant response rating, Spring Barley (spring barley [4]; Rate 62 g/ha, 0 to 100 scale): 20 | Plant response rating, Spring Barley (spring barley [4]; Rate 125 g/ha, 0 to 100 scale): 0 | Plant response rating, Spring Barley (spring barley [4]; [7]): 30 | Plant response rating, Barley (winter) (winter barley; Rate 62 g/ha, 0 to 100 scale): 5 | Plant response rating, Barley (winter) (winter barley; Rate 125 g/ha, 0 to 100 scale): 5 | Plant response rating, Barley (winter) (winter barley; [7]): 10 | Plant response rating, Downy brome (downy brome; [11]): 50 | Plant response rating, Downy brome (downy brome; [9]): 60 | Plant response rating, Downy brome (downy brome; Rate 250 g/ha, 0 to 100 scale): 75 | Plant response rating, LS canarygrass (littleseed canarygrass [5]; [11]): 50 | Plant response rating, LS canarygrass (littleseed canarygrass [5]; [9]): 80 | Plant response rating, LS canarygrass (littleseed canarygrass [5]; Rate 250 g/ha, 0 to 100 scale): 80 | Plant response rating, Russian thistle (Russian thistle; [11]): 0 | Plant response rating, Russian thistle (Russian thistle; [9]): 0 | Plant response rating, Russian thistle (Russian thistle; Rate 250 g/ha, 0 to 100 scale): 10 | Plant response rating, Spring Barley (spring barley [6]; [11]): 30 | Plant response rating, Spring Barley (spring barley [6]; [9]): 70 | Plant response rating, Spring Barley (spring barley [6]; Rate 250 g/ha, 0 to 100 scale): 70 | Plant response rating, Sugar beet (sugar beet; [11]): 70 | Plant response rating, Sugar beet (sugar beet; [9]): 100 | Plant response rating, Sugar beet (sugar beet; Rate 250 g/ha, 0 to 100 scale): 100 | Plant response rating, Sunflower (sunflower; [11]): 20 | Plant response rating, Sunflower (sunflower; [9]): 30 | Plant response rating, Sunflower (sunflower; Rate 250 g/ha, 0 to 100 scale): 40 | Plant response rating, Wild mustard (wild mustard; [11]): 100 | Plant response rating, Wild mustard (wild mustard; [9]): 85 | Plant response rating, Wild mustard (wild mustard; Rate 250 g/ha, 0 to 100 scale): 100

Cc1ccccc1Cn1c(=O)on(C(=O)N(c2ccc(Cl)cc2)C(C)C)c1=O [Compound 136]
Plant response rating, Crabgrass (crabgrass; Postemergence, Rate 1000 g/ha): 6 | Plant response rating, Crabgrass (crabgrass; Pre-emergence, Rate 2000 g/ha): 10

Source: patent publication US6737383B1, “Herbicidal oxadiazolidines” (priority 1999, dated 2004)
